From PubChem BioAssay (NCI)
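48-hour exposure; five concentrations; linearly interpolated endpoints. GI50: concentration for 50% inhibition of growth. The concentration for full growth arrest is given as TGI.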

Legend:
Experiment in all cases: NCI tumour cell line growth inhibition, 48 h
[1] = test system: MDA-MB-468 breast
[2] = test system: 786-0 renal
[3] = test system: A498 renal
[4] = test system: A549 NSCLC
[5] = test system: ACHN renal
[6] = test system: BT-549 breast
[7] = test system: CAKI-1 renal
[8] = test system: CCRF-CEM leukemia
[9] = test system: COLO 205 colon
[10] = test system: DU-145 prostate
[11] = test system: EKVX NSCLC
[12] = test system: HCC-2998 colon
[13] = test system: HCT-116 colon
[14] = test system: HCT-15 colon
[15] = test system: HL-60(TB) leukemia
[16] = test system: HOP-62 NSCLC
[17] = test system: HOP-92 NSCLC
[18] = test system: HS 578T breast
[19] = test system: HT29 colon
[20] = test system: IGROV1 ovarian
[21] = test system: K-562 leukemia
[22] = test system: KM12 colon
[23] = test system: LOX IMVI melanoma
[24] = test system: M14 melanoma
[25] = test system: MALME-3M melanoma
[26] = test system: MCF7 breast
[27] = test system: MDA-MB-435
[28] = test system: MOLT-4 leukemia
[29] = test system: NCI-H226 lung
[30] = test system: NCI-H23 lung
[31] = test system: NCI-H460 lung
[32] = test system: NCI-H522 lung
[33] = test system: NCI/ADR-RES ovarian
[34] = test system: OVCAR-3 ovarian
[35] = test system: OVCAR-4 ovarian
[36] = test system: OVCAR-5 ovarian
[37] = test system: OVCAR-8 ovarian
[38] = test system: PC-3 prostate
[39] = test system: RPMI-8226 leukemia
[40] = test system: RXF 393 renal
[41] = test system: SF-268 CNS
[42] = test system: SF-295 CNS
[43] = test system: SF-539 CNS
[44] = test system: SK-MEL-28 melanoma
[45] = test system: SK-MEL-5 melanoma
[46] = test system: SK-OV-3 ovarian
[47] = test system: SN12C renal
[48] = test system: SNB-19 CNS
[49] = test system: SR leukemia
[50] = test system: SW-620 colon
[51] = test system: T-47D breast
[52] = test system: TK-10 renal
[53] = test system: U251 CNS
[54] = test system: UACC-62 melanoma

COc1ccc(/C=C(\C)[N+](=O)[O-])cc1OC
GI50 [1]: 1.48 µM
TGI [1]: 3.05 µM

COc1cc(C(=O)c2cc(C)c3[nH]c4ccc(O)cc4c3c2C)cc(OC)c1OC
GI50 [1]: < 0.0157 µM
TGI [1]: 1.06 µM

O=C(Nc1ccccc1OC(=O)c1ccccc1)c1ccccc1
GI50 [1]: 5.64 µM
TGI [1]: > 100 µM

Oc1cccc2c1NCCC2
GI50 [1]: 1.83 µM
TGI [1]: 8.49 µM

COc1ccc(Nc2ccnc(N3CCN(c4ccnc5cc(Cl)ccc45)CC3)n2)cc1
GI50 [1]: 1.5 µM
TGI [1]: > 100 µM

CC(C)C[C@H](NC(=O)CNC(=O)C[C@H]1O[C@@H]2OC3(C)CC[C@H]4[C@H](C)CC[C@@H]([C@H]1C)[C@@]24O3)B(O)O
GI50 [2]: 4.22 µM
TGI [2]: 53.6 µM
GI50 [3]: 6.87 µM
TGI [3]: 49 µM
GI50 [4]: 3.93 µM
TGI [4]: > 100 µM
GI50 [5]: 3.99 µM
TGI [5]: > 100 µM
GI50 [6]: 0.537 µM
TGI [6]: 2.45 µM
GI50 [7]: 16.8 µM
TGI [7]: > 100 µM
GI50 [8]: 0.502 µM
TGI [8]: 3.88 µM
GI50 [9]: 4.79 µM
TGI [9]: 22.2 µM
GI50 [10]: 13.5 µM
TGI [10]: > 100 µM
GI50 [11]: 7.94 µM
TGI [11]: 79.6 µM
GI50 [12]: 1.92 µM
TGI [12]: 3.46 µM
GI50 [13]: 1.46 µM
TGI [13]: 3.7 µM
GI50 [14]: 6.42 µM
TGI [14]: 24.1 µM
GI50 [15]: 0.514 µM
TGI [15]: 4.15 µM
GI50 [16]: 3.89 µM
TGI [16]: 18.4 µM
GI50 [17]: 3.12 µM
TGI [17]: 9.51 µM
GI50 [18]: 3.5 µM
TGI [18]: 70.6 µM
GI50 [19]: 1.67 µM
TGI [19]: 4.63 µM
GI50 [20]: 6.94 µM
TGI [20]: 34.4 µM
GI50 [21]: 3.69 µM
TGI [21]: > 100 µM
GI50 [22]: 2.71 µM
TGI [22]: 7.32 µM
GI50 [23]: 1.44 µM
TGI [23]: 3.14 µM
GI50 [24]: 1.91 µM
TGI [24]: 4.82 µM
GI50 [25]: 1.22 µM
TGI [25]: 4.4 µM
GI50 [26]: 1.36 µM
TGI [26]: 41 µM
GI50 [27]: 1.38 µM
TGI [27]: 3.93 µM
GI50 [1]: 1.43 µM
TGI [1]: 3.57 µM
GI50 [28]: 0.332 µM
TGI [28]: 1.92 µM
GI50 [29]: 0.645 µM
TGI [29]: 2.14 µM
GI50 [30]: 3.1 µM
TGI [30]: 11.8 µM
GI50 [31]: 4.72 µM
TGI [31]: 23 µM
GI50 [32]: 1.63 µM
TGI [32]: 3.3 µM
GI50 [33]: 40.6 µM
TGI [33]: > 100 µM
GI50 [34]: 1.78 µM
TGI [34]: 4.27 µM
GI50 [35]: 5.64 µM
TGI [35]: > 100 µM
GI50 [36]: 2.53 µM
TGI [36]: 13.8 µM
GI50 [37]: 3.58 µM
TGI [37]: 17.6 µM
GI50 [38]: 5.47 µM
TGI [38]: 67 µM
GI50 [39]: 0.272 µM
TGI [39]: 1.38 µM
GI50 [40]: 0.738 µM
TGI [40]: 2.18 µM
GI50 [41]: 3.51 µM
TGI [41]: 97.5 µM
GI50 [42]: 2.45 µM
TGI [42]: 11.3 µM
GI50 [43]: 1.32 µM
TGI [43]: 3.08 µM
GI50 [44]: 1.45 µM
TGI [44]: 7.28 µM
GI50 [45]: 1.79 µM
TGI [45]: 3.67 µM
GI50 [46]: 6.45 µM
TGI [46]: 35.2 µM
GI50 [47]: 2.98 µM
TGI [47]: 12 µM
GI50 [48]: 5.83 µM
TGI [48]: > 100 µM
GI50 [49]: 0.303 µM
TGI [49]: 1.5 µM
GI50 [50]: 2.78 µM
TGI [50]: 17.8 µM
GI50 [51]: 2.19 µM
TGI [51]: 5.88 µM
GI50 [52]: 3.01 µM
TGI [52]: 20.1 µM
GI50 [53]: 3.61 µM
TGI [53]: 17.6 µM
GI50 [54]: 1.92 µM
TGI [54]: 4.61 µM
